Consider one molecule from patent publication US20060025449A1, “Use of N-substituted imino sugars for appetite suppression” (priority 2004, published 2006).

The test system of series [1] is C57B1/6 mice. As to the kind of experiment: Skin histology/thickness and gross dissection for white adipose tissue. Format: in vivo, mouse. The procedure:
Six week-old control mice on a normal diet or treated with 2400 mg/kg/day NB-DNJ for four weeks (n=3 in each group), were sacrificed and hair removed by shaving followed by application of a depilatory cream. A small section of skin was excised from the same area of the back of each mouse and processed for histology. After excision, the skin was put into mini histology trays containing OCT compound (BDH Laboratory Supplies, UK) and frozen for cryo-sectioning. Cryosections (10 μm thickness) of skin were then fixed in ice-cold acetone for 30 sec and rinsed under running tap water for 1 minute before dipping briefly in Mayer's haemotoxylin (Sigma, UK). The sections were dehydrated through a rising ethanol concentration series of 70%, 80%, 95%, 100% before clearing with Histo-Clear Histological Clearing agent (National Diagnostics, […], Hull, UK) twice for 5 min. Finally, the sections of skin were mounted with cover slips and DePeX mounting medium (BDH Laboratory Supplies, UK) on glass microscope slides. Another portion of skin (5 mm^2) was taken from each mouse, placed on a microscope slide and skin thickness measured using a micrometer gauge. […] Also, after complete depilation, this group of mice had transparent skin making the visceral organs, ventrally, and the kidneys and spinal vertebrae, dorsally, clearly visible in contrast to the opaque, non-transparent skin of controls. […]

The subject of the next series is ob/ob mice. As to the kind of experiment: Long-term dietary dosing of obese mice, growth curves. It is filed as in vivo, mouse. Conditions: 2400 mg/kg/d in diet. The procedure:
Control C57B1/6 and C57BL/6O1aHsd-Lep ob mice were obtained from Harlan, UK at five weeks of age. The mice were housed under standard non-sterile conditions and fed a diet of mouse chow pelleted or expanded ground RM1 diet (SDS Ltd, Witham, Essex) with water available ad libitum. For dietary treatment of the mice with NB-DNJ or NB-DGJ, the diet and compound were admixed thoroughly as dry solids, stored at room temperature and used within 7 days. Unless indicated otherwise, mice were treated with a dose of 2400 mg/kg body weight per day, assuming an intake of around 5 g diet/day. Mice were maintained on diet with or without compound for up to six months of age and were weighed at regular intervals during the course of the experiment (see figure legends for group sizes and further experimental details). To study the effect of compound on obese mice, three groups (n=5) of ob/ob mice were monitored from five weeks of age. One group acted as control and were fed ground RM1 diet. […] All mice were then monitored for up to six months of age. Leptin deficient ob/ob mice are widely used as an animal model of obesity and weigh more than twice as much as a normal mouse, even when fed the same diet. The mice have as much as a five-fold increase in fat content, are hyperphagic, hypothermic, have decreased energy expenditure and are unusually efficient at converting metabolic fuels into fat. Friedman & Halas, Nature 395, 763-70 (1998). These mice were used to investigate the effect of NB-DNJ. […] As NB-DNJ was so effective at reducing white adipose tissue in normal mice, a study was performed to discover if a similar effect would occur in obese mice. […] The control obese mice grew from just over 20 g at five weeks old to about 60 g at six months of age whereas the lean controls had reached about 27 g at the same age. The group of obese mice started on NB-DNJ treatment at 7 weeks old grew at a very much reduced rate and weighed 35 g after six months (40% less than their control littermates). […]

For series [2], the system named is C57B1/6 mice. It is filed as in vivo, mouse. On the procedure: Growth rates of control and NB-DNJ-treated mice were analysed statistically by univariate analysis of variance (ANOVA) using SPSS software to compare slopes of growth from 54 to 174 days of age.
The effect of NB-DNJ on lean body mass growth was also assessed by measuring tibia lengths in a group of 20 control mice at one year old, 5 mice at 2 years old and two mice 19.5 months old after 18 months on 2400 mg/kg/day. Tibias were dissected from both hind-limbs then boiled in distilled water for 20 min to clean the bone of remaining connective tissue and muscle. Tibia length was then measured using calipers.
It can also be seen (FIG. 4) that the control mice lost weight over the first two weeks of treatment and then started to grow again, and continued to gain weight for the remainder of the study. […] Growth in both groups of mice as measured by the gradient of the line is similar and the data were analysed by univariate analysis of variance (ANOVA) to compare the slopes of growth statistically.
To establish further, whether NB-DNJ has an effect on lean growth of mice tibia lengths were measured in a large (n=20) group of control mice at one year of age, a smaller group (n=5) at two years of age and a comparison was made with two mice treated with NB-DNJ for 18 months.

In a further series the test system is control lean mice. The series is described as follows: ICV mini-pump implants, long-term intracerebro-ventricular delivery. It is filed as in vivo, mouse. The procedure: FIG. 11. Control lean mice (n=5 in each group) had icv minipumps (50 mM imino sugar) implanted. Body weight was the monitored at regular intervals over three weeks. See example 7 for further experimental details. The effect of long-term intracerebro-ventricular delivery of imino sugars was determined by the implantation of Alzet mini-osmotic pumps (model 2004, DURECT Corporation, CA, USA) together with the brain infusion kit II which features a high stability low profile cannula. The mini-pumps were loaded with 0.24 ml imino sugar or saline vehicle. The indwelling 28 gauge stainless steel cannula was cut to a length of 2.25 mm. Mice were anaesthetised as for the ICV injections and underwent similar surgical procedures throughout. After drilling a small hole in the cranium at the midline, 2 mm posterior to Bregma, the mini-pump was positioned subcutaneously in the animal's flank and the cannula was implanted. This position and depth ensured delivery to the third cerebral ventricle. The implant was secured to the cranium using VetBond acrylic suture fluid, which was also used to close the surgical wound. The whole procedure lasted less than 9 minutes and mice were fully conscious and recovered within three minutes. For concentration of imino sugar in mini-pumps see figure legends.

In series [3] the test system is C57B1/6 mice. Conditions: Platt et al.; cited from earlier work.
Setting [4] is: ICV mini-pump 500 mM, first 24 hours.

Turning to `CCCCN1C[C@H](O)[C@@H](O)[C@H](O)[C@H]1CO` [NB-DNJ, N-butyldeoxynojirimycin], the “white adipose tissue on gross dissection” value with C57B1/6 mice [1] (2400 mg/kg/day) is given as “significant depletion of white adipose tissue”. Moreover, the “reduction in mouse skin thickness” value in the series with C57B1/6 mice [1] (2400 mg/kg/day for four weeks, six week-old mice) is 40%. In the series with ob/ob mice (started at 7 weeks old), the “body weight of obese mice after six months” value worked out at 35 g. In addition, in the series on ob/ob mice (started at 7 weeks old, after six months), the “weight less than control littermates” value is on record as 40%. Moreover, the “weight at which obese mice stabilised after losing weight” value in the series with ob/ob mice (started at 12 weeks old, over three months) is given as “less than 40 g”. Also, in the series on C57B1/6 mice [2] (2400 mg/kg/d in diet), the “weighing less than control counterparts after original weight loss” value amounted to 4 g. Moreover, the “lean mass” value in the series with C57B1/6 mice [2] (admixed with diet, lean mice) is reported as “did not have any reduction in lean mass”. Besides, in the series with C57B1/6 mice [2] (two mice treated for 18 months, 2400 mg/kg/day), the “tibia lengths” value is recorded as “within the normal range”. The “reduction in food intake compared to the controls” value in the series with control lean mice (ICV mini-pump 50 mM, NB-DGJ as control) is reported as 6%. In addition, in the series on control lean mice (ICV mini-pump 50 mM, after 3 weeks), the “reduction of body weight” value was determined as 5%. In addition, in the series on control lean mice (setting [4]), the “effect on dietary intake” value is “ate even less” and the “effect on weight change” value is “lost a little more weight”. Further, in the series with C57B1/6 mice [3], the “dose at which a well-defined effect on total body weight has been seen” value is recorded as at least 600 mg/kg/day.
